Data from article PMC4176347, “Zinc finger oxidation of Fpg/Nei DNA glycosylases by 2-thioxanthine: biochemical and X-ray structural characterization” (Nucleic Acids Research, 2014).

Experiments:
[1] = biological target: T1, LlFpg WT (Lactococcus lactis) (UniProt P42371); assay: EMSA; conditions: apparent Kd, N at position 7 of strand 1 = tetrahydrofuran (THF) abasic site analogue, opposite C, EMSA: 0.1 nM 32P-labelled 14-mer THF-DNA, 0-16 nM LlFpg (2 nM in 2TX assays), 20 min at 4 C / on ice, with or without 8% DMSO, buffer and pH as in cited …
T1 sequence: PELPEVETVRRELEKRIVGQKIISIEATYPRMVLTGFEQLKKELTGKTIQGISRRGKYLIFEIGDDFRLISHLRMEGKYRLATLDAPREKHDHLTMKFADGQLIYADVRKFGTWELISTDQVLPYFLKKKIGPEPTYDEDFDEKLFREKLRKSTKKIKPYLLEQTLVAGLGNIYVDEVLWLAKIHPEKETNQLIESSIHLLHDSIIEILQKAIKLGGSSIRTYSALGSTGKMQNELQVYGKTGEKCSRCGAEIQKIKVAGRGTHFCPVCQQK

LlFpg [2] = biological target: T2, LlFpg (Lactococcus cremoris, UniProt P42371); assay: 8-oxoG-DNA glycosylase assay, […]-labelled 24-mer, gel; type: biochemical; conditions: 5 nM enzyme, 25 nM 8-oxoG-DNA, 0-250 μM 2TX, 30 min, 37°C, 8% DMSO
T2 construct: gene mutM; full-length recombinant from pFlag-CTC-WT-LlFpg, E. coli BH540 (fpg mutY) host, purified to homogeneity; zinc finger C245/C248/C265/C268
T2 sequence (P42371 2-273): T1 sequence

LlFpg [3] = biological target: T2, LlFpg; assay: PAR assay, 2TX-induced Zn2+ release, A500; type: binding; conditions: free enzyme without DNA; 5 μM enzyme, 10 mM 2TX, 100 μM PAR, 25 mM Hepes/KOH pH 7.5, 70 mM KCl, 8% DMSO, room temperature; covalent
Text: PAR assay, 2TX-induced Zn2+ release, A500 on LlFpg

EcNei [4] = biological target: T3, EcNei (Escherichia coli, UniProt P50465); assay: PAR assay, 2TX-induced Zn2+ release, A500; type: binding; conditions: free enzyme without DNA; 5 μM enzyme, 10 mM 2TX, 100 μM PAR, 25 mM Hepes/KOH pH 7.5, 70 mM KCl, 8% DMSO, room temperature; covalent
T3 construct: gene nei; full-length, C-terminal 6His-tag, pET22b derivative, expressed in E. coli BL21(DE3)
Text: PAR assay, 2TX-induced Zn2+ release, A500 on EcNei

LlFpg [5] = biological target: T2, LlFpg; assay: X-ray crystal structures of LlFpg/DNA treated with 2TX ([…] Å THF-DNA; […] Å Bz-cFapyG-DNA); type: binding; conditions: covalent disulfide to C248 (THF-DNA) or C268 (Bz-cFapyG-DNA); stacks on W179; outside active site; zinc lost
hNEIL2 [6] = biological target: T4, hNEIL2 (Homo sapiens, UniProt Q969S2); assay: PAR assay, 2TX-induced Zn2+ release, A500; type: binding; conditions: free enzyme without DNA; 5 μM enzyme, 10 mM 2TX, 100 μM PAR, 25 mM Hepes/KOH pH 7.5, 70 mM KCl, 8% DMSO, room temperature; covalent
T4 construct: gene NEIL2; 6His-hNEIL2 fusion, vector pPR363, expressed in E. coli BL21CodonsPlus; CHC2-type zinc finger
T4 sequence (Q969S2 1-332): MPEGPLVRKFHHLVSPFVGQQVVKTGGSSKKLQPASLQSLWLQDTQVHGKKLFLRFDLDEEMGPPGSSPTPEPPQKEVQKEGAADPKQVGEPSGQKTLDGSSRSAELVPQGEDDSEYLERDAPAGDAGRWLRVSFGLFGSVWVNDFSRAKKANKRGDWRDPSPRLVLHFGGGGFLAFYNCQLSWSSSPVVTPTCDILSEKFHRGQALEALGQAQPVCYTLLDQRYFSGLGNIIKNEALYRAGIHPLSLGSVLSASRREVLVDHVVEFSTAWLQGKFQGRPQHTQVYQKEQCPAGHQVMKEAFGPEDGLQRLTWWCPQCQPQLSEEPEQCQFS
Text: PAR assay, 2TX-induced Zn2+ release, A500 on hNEIL2

hNEIL2 [7] = biological target: T4, hNEIL2; assay: Hyd-DNA glycosylase assay, […]-labelled 24-mer, Urea-PAGE; type: biochemical; conditions: Hyd single-stranded DNA, 30 min, 37°C, 8% DMSO
EcNei [8] = biological target: T3, EcNei; assay: as above; type: biochemical; conditions: Hyd:G double-stranded DNA, 30 min, 37°C, 8% DMSO

T3 sequence (P50465 2-263): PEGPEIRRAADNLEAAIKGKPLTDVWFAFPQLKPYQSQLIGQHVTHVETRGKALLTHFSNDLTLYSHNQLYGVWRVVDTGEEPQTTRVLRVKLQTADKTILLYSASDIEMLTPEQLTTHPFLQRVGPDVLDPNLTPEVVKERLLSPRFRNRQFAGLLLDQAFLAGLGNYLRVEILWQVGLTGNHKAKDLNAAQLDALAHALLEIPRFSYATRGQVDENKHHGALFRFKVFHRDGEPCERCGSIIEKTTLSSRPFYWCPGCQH

Row | kobs (min^-1)^a / - DNA (LlFpg [3]) [min⁻¹] | kobs (min^-1)^a / - DNA (EcNei [4]) [min⁻¹] | kobs (min^-1)^a / - DNA (hNEIL2 [6]) [min⁻¹] | Molecule | Kd ([1]; 8% DMSO) [nM] | Kd ([1]; without DMSO) [nM] | 8-oxoG-DNA glycosylase assay, 32P-labelled 24-mer, gel (LlFpg [2]) | X-ray crystal structures of LlFpg/DNA treated with 2TX (2.4 Å THF-DNA); 2.1 Å Bz- (LlFpg [5]) | Hyd-DNA glycosylase assay, 32P-labelled 24-mer, Urea-PAGE (hNEIL2 [7]) | Hyd-DNA glycosylase assay, 32P-labelled 24-mer, Urea-PAGE (EcNei [8])
1 | – | – | – | CTCTTTNTTTCTCG / GCGAGAAACAAAGA [14-mer THF-DNA] | 3 | 10 | – | – | – | –
2 | 0.073 ± 0.001 | 0.296 ± 0.001 | 0.180 ± 0.002 | O=c1[nH]c(=S)[nH]c2nc[nH]c12 [2TX, 2-thioxanthine] | – | – | excision of 8-oxoG from 24-mer DNA duplex (Supplementary Figure S2) by LlFpg was inhibited | a 2TX molecule covalently bound to C268 was easily modeled in the electron density map | The Hyd-DNA glycosylase activity of EcNei and hNEIL2 were also strongly inhibited by 2TX | The Hyd-DNA glycosylase activity of EcNei and hNEIL2 were also strongly inhibited by 2TX
